The text below walks through data of patent US7029652B2, “Method of treating tumors” (The Regents of the University of California, priority 1998, dated 2006).

Data set [1] can be described thus: Toxicity: mortality, weights and blood counts. It is filed as in vivo. The protocol:
Toxicity. Weights and blood counts were measured 2–3 times per week for 12 weeks post-injection or until death. Blood samples were collected from tail veins using 2 μL microcapillary pipets. Samples from mice within a dose group were pooled, and diluted 1:200 in phosphate-buffered saline (PBS, 0.9% saline/10 mM sodium phosphate, pH 7.6) for red blood cell (RBC) counts; 1:100 in 1% (w/v) ammonium oxalate for platelet counts; or 1:20 in 3% (w/v) acetic acid for white blood cell (WBC) counts.
Statistical Analysis. Statistical analysis of mortality data for RIT and CMRIT method treated mice was performed using a Fisher Exact test with StatExact software to determine if mortality was different. Statistical analysis of therapy data was done using a Cochran Mantel Haenszel test to evaluate effect of RIT dose on outcome for RIT and CMRIT method groups. Comparison of cure rates to all other responses for RIT vs. CMRIT method groups was done by Fisher Exact test, with the best tumor response used for 2-tumored animals for statistical purposes. Statistical differences between immunopathology groups at the different time points were assessed by analysis of variance (ANOVA) (Fisher PLSD) using STATview software as appropriate, with p<0.05 considered significant.

Data set [2] deals with HBT 3477 tumors. In words: TUNEL analysis of total cell apoptosis in tumors. It is filed as in vivo, mice. The protocol: (§1) Cellular immunopathology groups. Unless otherwise noted, groups consisted of 2 mice, each bearing 2 tumors, for a total of 4 tumors analyzed at each time point. […] The tumors were removed, cut in half, frozen in optimal cutting temperature (O.C.T). medium, and stored at about −70° C. until sectioning (10-μm sections). All time points were evaluated for apoptosis by terminal deoxynucleotidyl transferase-mediated dUTP nick end labeling (TUNEL, Cavrieli, et al. J. Cell Bio., 119: 493–501 (1992)) analysis, and selected time points (untreated, 1,5 and 6 days) were assessed for differences in proliferation rate (Ki67) and microvessel density (CD31).
TUNEL analysis of total and endothelial apoptosis. Tumors were cut into 10-μm sections onto Fisher superplus slides (Fisher, Pittsburgh, Pa.), air-dried for 1 hour and frozen at about −70° C. until TUNEL analysis with ApopTag Red kit (rhodamine used as label, Intergen, Purchase, N.Y.) following the manufacturer's instructions subsequent to fixation for about 10 minutes in 1% paraformadehyde. After TUNEL, the slides were rinsed, and incubated overnight at 4° C. with a rat anti-mouse MAb against CD31 at 1:100 dilution (Pharmingen, San Diego, Calif.) to identify endothelial cells. Slides were rinsed and incubated for 1 hour with an anti-rat antibody linked to FITC (1:50 dilution) (Pharmingen). Slides were rinsed, dipped briefly in 4,6-diamidino-2-phenylindole (DAPI, 0.2 μg/ml) for background nuclear stain, rinsed again and mounted, followed by storage in the dark at about 4° C. until quantitation.
Quantitation of total apoptosis and endothelial apoptosis. An Olympus microscope equipped with a Chroma Pinkle Filter Set (Chroma, Brattleboro, Vt.) with excitation filters for UV, FITC and rhodamine and dual/triple bandpass filters to allow simultaneous viewing of multiple wavelengths, was used to quantify 6 randomly chosen X600 fields (150,000 μm^2/field) in non-necrotic regions of each section. Fields were chosen to cover the entire viewing area using DAPI label, which typically included about 300–350 cells. Total apoptosis was determined by the average number of positive nuclei per field for each tumor while endothelial apoptosis was determined using the same fields with a dual bandpass filter to count cells labeled by both FITC (CD31) and rhodamine (TUNEL). Fields were chosen from apparently non-necrotic areas of tumor sections, as HBT 3477 xenografts typically grow quickly in nude mice, doubling their volumes in 6 days, resulting in central necrosis of untreated tumors. As TUNEL may label necrotic cells, though less intensely, this strategy was chosen over a completely random process.

Data set [3] deals with endothelial cells in HBT 3477 tumors. In words: TUNEL/CD31 analysis of endothelial apoptosis in tumors. It is filed as in vivo, mice. The protocol:
as §1
TUNEL analysis of total and endothelial apoptosis. […] Slides were rinsed, dipped briefly in 4,6-diamidino-2-phenylindole (DAPI, 0.2 μg/ml) for background nuclear stain, rinsed again and mounted, followed by storage in the dark at about 4° C. until quantitation.
Quantitation of total apoptosis and endothelial apoptosis. An Olympus microscope equipped with a Chroma Pinkle Filter Set (Chroma, Brattleboro, Vt.) with excitation filters for UV, FITC and rhodamine and dual/triple bandpass filters to allow simultaneous viewing of multiple wavelengths, was used to quantify 6 randomly chosen X600 fields (150,000 μm^2/field) in non-necrotic regions of each section. […]

The test system of data set [4] is HBT 3477 tumors. Put plainly: Proliferation (Ki67) in tumors. The data set is classed as in vivo, mice. The protocol:
as §1
Proliferation and microvessel density Analyses. 10-μm sections of tumors from untreated and mice treated with cRGD pentapeptide, RIT and CMRIT method and sacrificed at 1, 5 and 6 days after treatment were fixed for 10 minutes in ice-cold acetone, rinsed in PBS, and briefly incubated in methanol with 0.6% H2O2 (5 minutes). After rinsing in PBS, sections were blocked for 10 minutes with 10% goat serum and 1% bovine serum albumin in PBS. Mouse anti-Ki67 MAb (Pharmingen, clone B56) was applied in blocking solution (6.25 μg/ml) and the slides were incubated at room temperature for 2 hours, followed by rinsing in PBS. Goat anti-mouse rhodamine-labeled or goat anti-mouse Cy-3-labeled antibody was applied (Jackson ImmunoResearch Laboratories, Inc, West Grove, Pa., 1:100) and the slides were incubated for 1 hour at room temperature. After rinsing in PBS the sections were incubated for 1 hour at room temperature with rat anti-mouse CD31 antibody (Pharmingen, 1:100), followed by rinsing in PBS and a subsequent 1 hour incubation with goat anti-rat FITC-labeled antibody (Pharmingen, 1:50). After rinsing in PBS, the slides were counterstained with DAPI (0.4 μg/ml) and mounted in Biomeda gel mount (Fisher) under coverslips. Quantitation of Ki67 was performed using an Olympus microscope at X1000 magnification for assessment of proliferation. The mean total number of Ki67-positive cells/field in a tumor was determined by counts from 6 fields per tumor chosen randomly by DAPI stain. Microvessel density was determined by counting the number of CD31-stained vessels per random field at X400 magnification. Any endothelial cell or cell cluster positive for CD31, which was separate from an adjacent cluster, was counted as one microvessel. Six randomly chosen fields per tumor section were used to establish an average for each tumor. Average microvessel density for a treatment group was determined by averaging the values from 4 tumors/group.

A further data set concerns HBT 3477 cells. Put plainly: HBT 3477 cell binding radioimmunoreactive assay (RIA). On the set-up: species or system human. From the text:
^90Y-DOTA-peptide-ChL6. ChL6 was conjugated to 1,4,7,10-tetraazacyclododecane-N,N′,N″,N′″-tetraacetic acid (DOTA) and radiolabeled with ^90Y as described by DeNardo, et al. J. Nucl. Med., 36:829–836, with greater than or equal to 80 percent efficiency to prepare ^90Y-DOTA-peptide-ChL6. ^90Y-DOTA-peptide-ChL6 was examined for structural and functional integrity by molecular sieving high performance liquid chromatography (HPLC), cellulose acetate electrophoresis (CAE), and HBT 3477 cell binding radioimmunoreactive assay (RIA). […] Immunoreactive binding to live cells indicated greater than 92% reactivity; administration as a single dose of 200, 230 or 260 […] ^90Y-DOTA-peptide-ChL6.

[5] abbreviates: comparison as stated in the sentence.
The mark [6] stands for this setting: Day 1, six fields per tumor at 1000X.

`CC(C)[C@H]1C(=O)N[C@@H](CCCN=C(N)N)C(=O)NCC(=O)N[C@@H](CC(=O)O)C(=O)N[C@H](Cc2ccccc2)C(=O)N1C` [cyclo-(Arg-Gly-Asp-D-Phe-[N-Me]-Val)]: the “mortality or toxicity, in words” value in data set [1] (setting [5]) is listed as “No increased mortality or toxicity”. Moreover, the “total cell apoptosis, percent of cells” value in the data set with HBT 3477 tumors [2] (1 day after treatment) came to 4.6%. In addition, in the data set on HBT 3477 tumors [2] (1 day after treatment, X600, about 350 cells/field), the “TUNEL-positive tumor and endothelial cells (total cells)” value worked out at 16.2±1.89 cells/field. In addition, the endothelial apoptosis in data set [3] (1 day after treatment) is 2.5±0.5 cells/field; in data set [3] (5 days after treatment) it was 2.4±0.7 cells/field. The “Proliferating cells, average no. of Ki67-positive cells” value in the data set on HBT 3477 tumors [4] (setting [6]) was 14 ± 2 f; with HBT 3477 tumors [4] (Day 5) it was 13 ± 1 f.
In the case of “^90Y-1,4,7,10-tetraazacyclododecane-N,N′,N″,N′″-tetraacetic acid-peptide-ChL6 [RIT]”, the “weight, RBC, WBC and platelet counts, in words” value in data set [1] (setting [5]) was “decreased weight, RBC, WBC and platelet counts”. Moreover, the mortality in data set [1] (high dose RIT (260 μCi)) worked out at 33%; in data set [1] (low dose RIT (200–230 μCi)), 29%. In addition, in the data set with HBT 3477 tumors [2] (6 days), the “TUNEL-positive tumor and endothelial cells (total cells)” value was found to be 21.4±2.9 cells/field. The “total cell apoptosis, percent of cells” value in the data set on HBT 3477 tumors [2] (6 days) is recorded as 6.1%. The “Proliferating cells, average no. of Ki67-positive cells” value with HBT 3477 tumors [4] (setting [6]) is on record as 18 ± 1; with HBT 3477 tumors [4] (Day 5), 13 ± 1 f; in the data set with HBT 3477 tumors [4] (Day 6) it was 7 ± 1. The “Immunoreactive binding to live cells, reactivity” value in the data set on HBT 3477 cells is on record as “greater than 92%”.

For orientation: mortality means the percentage killed. A low value points to more survivors.
